Experimental data as given in patent publication US20070189965A1, “Copper-complex isonitrile positron emission tomography (pet) imaging agent and method” (priority 2004, published 2007).

How the values were obtained:
[1] = Stability of I-131 MIBG vials on storage: percent of iodine remaining bound; type: physicochemical
Protocol: In order to establish the advantages of the novel process and resulting composition, a series of tests were run utilizing meta iodo benzyl guanidine (MIBG) in which the radionuclide I-131 was the iodine in the MlBG.
The MIBG was prepared as follows: eight vials were prepared of MIBG in solution with a radioactive concentration of MIBG of 1 mCi per vial. The MIBG in six of those vials were then stabilized and lyophilized according to the process described in this invention. One vial was frozen and maintained at a temperature of −10 degrees, and another vial was simply refrigerated at approximately 5 degrees.
Six vials were prepared according to the process in this invention in order to enable several to be reconstituted from the lyophilized state and their activity tallied.
The radioactive concentration of MIBG per vial was 1 mCi per vial.
One each of the vials was reconstituted after 24, 48, 72 and 168 hours respectively.

[2] = Stability of I-131 Hippuran vials on storage: percent remaining bound; type: physicochemical
Protocol: As another example, I-131 Hippuran was prepared. The I-131 Hippuran was prepared as follows: 9 vials were prepared of I-131 Hippuran in solution with a radioactive concentration of MIBG of 1 mCi per vial. Each vial had 4 cc. The I-131 in seven of those vials was then stabilized and lyophilized according to the process described in this invention. One vial was frozen and maintained at a temperature of −10 degrees, and another vial was maintained room temperature. Room temperature was selected because Hippuran is thought to be stable at room temperature even in conjunction with a radioisotope. […]

[3] = Lyophilized and stabilized per invention, stored at room temp., 0 hours, 1 mCi per vial

## N=C(N)NCc1cccc([131I])c1 [MIBG, meta iodo benzyl guanidine]
[1]; Frozen −10°, 0 hours
  percent of iodine remaining bound to the MIBG: 96.3%
[1]; Frozen −10°, 24 hours
  percent of iodine remaining bound to the MIBG: 94%
[1]; Frozen −10°, 48 hours
  percent of iodine remaining bound to the MIBG: 91%
[1]; Frozen −10°, 72 hours
  percent of iodine remaining bound to the MIBG: 84%
[1]; Frozen −10°, 168 hours (1 wk.)
  percent of iodine remaining bound to the MIBG: 72%
[1]; [3]
  percent of iodine remaining bound to the MIBG: 96.3%
[1]; Lyophilized and stabilized per invention, stored at room temp., 24 hours
  percent of iodine remaining bound to the MIBG: 97%
[1]; Lyophilized and stabilized per invention, stored at room temp., 48 hours
  percent of iodine remaining bound to the MIBG: 96.6%
[1]; Lyophilized and stabilized per invention, stored at room temp., 72 hours
  percent of iodine remaining bound to the MIBG: 96.2%
[1]; Lyophilized and stabilized per invention, stored at room temp., 168 hours (1 wk.)
  percent of iodine remaining bound to the MIBG: 95.9%
[1]; Refrigerated ˜+5°, 0 hours
  percent of iodine remaining bound to the MIBG: 96.3%
[1]; Refrigerated ˜+5°, 24 hours
  percent of iodine remaining bound to the MIBG: 92%
[1]; Refrigerated ˜+5°, 48 hours
  percent of iodine remaining bound to the MIBG: 85%
[1]; Refrigerated ˜+5°, 72 hours
  percent of iodine remaining bound to the MIBG: 77%
[1]; Refrigerated ˜+5°, 168 hours (1 wk.)
  percent of iodine remaining bound to the MIBG: 55%

## O=C(O)CNC(=O)c1ccccc1[131I] [I-131 Hippuran]
[2]; Frozen −10°, 0 hours
  percent of Hippuran remaining bound to the 1-123: 98%
[2]; Frozen −10°, 24 hrs
  percent of Hippuran remaining bound to the 1-123: 97.8%
[2]; Frozen −10°, 48 hrs
  percent of Hippuran remaining bound to the 1-123: 97%
[2]; Frozen −10°, 72 hrs
  percent of Hippuran remaining bound to the 1-123: 94%
[2]; Frozen −10°, 96 hrs
  percent of Hippuran remaining bound to the 1-123: 92.5%
[2]; Frozen −10°, 120 hrs
  percent of Hippuran remaining bound to the 1-123: 91
[2]; [3]
  percent of Hippuran remaining bound to the 1-123: 98%
[2]; Lyophilized and stabilized per invention, stored at room temp., 24 hrs
  percent of Hippuran remaining bound to the 1-123: 98.4%
[2]; Lyophilized and stabilized per invention, stored at room temp., 48 hrs
  percent of Hippuran remaining bound to the 1-123: 98.6%
[2]; Lyophilized and stabilized per invention, stored at room temp., 72 hrs
  percent of Hippuran remaining bound to the 1-123: 98%
[2]; Lyophilized and stabilized per invention, stored at room temp., 96 hrs
  percent of Hippuran remaining bound to the 1-123: 98.4%
[2]; Lyophilized and stabilized per invention, stored at room temp., 120 hrs
  percent of Hippuran remaining bound to the 1-123: 98.5%
[2]; Room Temp. (solution), 0 hours
  percent of Hippuran remaining bound to the 1-123: 98%
[2]; Room Temp. (solution), 24 hrs
  percent of Hippuran remaining bound to the 1-123: 96%
[2]; Room Temp. (solution), 48 hrs
  percent of Hippuran remaining bound to the 1-123: 95%
[2]; Room Temp. (solution), 72 hrs
  percent of Hippuran remaining bound to the 1-123: 94.5%
[2]; Room Temp. (solution), 96 hrs
  percent of Hippuran remaining bound to the 1-123: 92%
[2]; Room Temp. (solution), 120 hrs
  percent of Hippuran remaining bound to the 1-123: 90%
